{"source": "patent EP2492354A1", "about": "“Method for identifying compounds useful in the treatment of photosensitive reflex epilepsy” (Institut National De La Recherche Agronomique (INRA), priority 2011, dated 2012)", "key": {"Fepi": {"system": "Fepi", "test": "Intermittent Light Stimulation (ILS) induced seizures in the photosensitive reflex epileptic chicken model", "assay_type": "in vivo", "procedure": "During 21 days, they were exposed to ILS (3 minutes) once a day.\nBehavioural activities were observed and time recorded for each phase of the paroxysmal manifestation during controlled intermittent light stimulation: • T0: ILS starts • T1 (time in seconds): neck myoclonus starts • T2 (time in seconds): convulsive phase starts • T3 (time in seconds): convulsive phase ends\nThe first day they were tested for control and all had ILS induced seizures. […]\nDuring the last 10 days, none of the animals was treated.\nThe influence of the treatment on the stimulus locked myoclonus and generalized convulsions of the photosensitive GRS was evaluated using generalized linear models implemented in the function glm of the software R, version 2.9.0. The number of seizures for each animal over a given phase of the experiment (with treatment and following treatment) was modeled using a binomial distribution, and linked to factors using the logit function. The delay for seizure initiation, the duration of the myoclonus and the duration of the convulsions were modeled using gamma distributions, and linked to the factors using the identity function. Sex was included as an additive co-factor in the analyses but not significant differences were found."}, "[1]": {"settings": "cited from earlier work"}, "plasma proteins": {"system": "plasma proteins", "settings": "cited from earlier work"}}}
{"smiles": "CC[C@@H](C(N)=O)N1CCCC1=O", "note": "[(S)-a-ethyl-2-oxo-1-pyrrolidine acetamide]", "values": [{"measurement": "anticonvulsant effect", "setting": "Fepi; chicken model of the invention", "value": "has an anticonvulsant effect"}, {"measurement": "persistence of the effect after the injection period", "setting": "Fepi; last 10 days without treatment", "value": "the effect partially persisting few days after the injection period"}, {"measurement": "seizure duration (on average)", "setting": "Fepi; treated (50, 100 or 200 mg/Kg) homozygous, placebo 16.2 s, p-value 1 e-08", "value": 10.7, "unit": "s"}, {"measurement": "dose range over which the pharmacokinetics are linear", "setting": "[1]; in vivo", "value": "500 to 5000", "unit": "mg"}, {"measurement": "time to peak plasma concentrations", "setting": "[1]; oral administration to fasted subjects", "value": "one"}, {"measurement": "decrease of Cmax by food", "setting": "[1]; oral, with food", "value": 20, "unit": "%"}, {"measurement": "delay of Tmax by food", "setting": "[1]; oral, with food", "value": 1.5, "unit": "h"}, {"measurement": "oral bioavailability", "setting": "[1]; tablets", "value": 100, "unit": "%"}, {"measurement": "time to steady state", "setting": "[1]; twice-daily dosing", "value": 2, "unit": "days"}, {"measurement": "bound to plasma proteins", "setting": "plasma proteins", "value": "less than 10%"}]}
